Reference: PMC8662641, “Site-Specific Labeling of Endogenous Proteins Using CoLDR Chemistry” (Journal of the American Chemical Society, 2021)
“And” between values parts separate entries of the source, which are not always exact repeats. Equal entries are not always repeated.

Assays:
BTK = BTK (Homo sapiens, UniProt Q06187); set-up: BTK kinase domain was expressed and purified as previously reported; made in house; method as in Reddi et al., J. Am. Chem. Soc. 2021, 143 (13), 4979–4992; settings: ref Reddi et al., J. Am. Chem. Soc. 2021, 143 (13), 4979–4992; cited from earlier work
BTK-1h = target: T1, BTK-1h (Homo sapiens, UniProt Q06187); assay: High-throughput screening with 1h-labeled BTK; assay type: binding
T1 construct: The BTK kinase domain was diluted to 2 μM in the buffer, and 2 μM 1h was added; made in house
Protocol: The collection was composed of BTK binding compounds obtained in our previous luminescence screen[37] (Data set S2). […] The resulting BTK-1h (50 μL) was added to the inhibitors.

[1] = Dataset S2A, 200 μM compound, BTK-1h, 32 °C, 10 min
[2] = Dataset S2B, 200 μM inhibitor added to BTK-1h (2 μm)

T1 sequence (Q06187 402-655): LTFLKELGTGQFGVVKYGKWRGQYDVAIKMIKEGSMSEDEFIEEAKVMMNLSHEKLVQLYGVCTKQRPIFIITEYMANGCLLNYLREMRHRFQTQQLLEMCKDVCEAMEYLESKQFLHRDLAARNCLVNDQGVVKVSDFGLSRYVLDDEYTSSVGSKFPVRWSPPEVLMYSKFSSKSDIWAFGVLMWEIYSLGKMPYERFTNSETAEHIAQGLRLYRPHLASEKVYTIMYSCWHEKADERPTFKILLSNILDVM
BTK, sequence (Q06187 402-655 limits assumed): as the sequence (Q06187 402-655) above

Compound | BTK Inhibition reported in luminescence assay* (BTK) | FI (650)/FI (620) (BTK-1h; [1]) | FI (BTK-1h)/FI (BTK-1h+Inhibitor) at 620 nm (BTK-1h; [1]) | FI (BTK-1h)/FI (BTK-1h+Inhibitor) at 620 nm (BTK-1h; [2]) | FI (650)/FI (620) (BTK-1h; Dataset S2C, BTK-1h with inhibitor)
Cl.O=C(c1ccc(OCCN2CCCCC2)cc1)c1c(-c2ccc(O)cc2)sc2cc(O)ccc12 [PCM-0065394-003] | 85.5 | 1.378 | 1.018 | – | –
Cl.N/C(=N\N=C\c1ccc(Cl)cc1)N/N=C/c1ccc(Cl)cc1 [PCM-0215125-001] | 77.8 | 1.174 | 1.002 | – | –
CC#CC(=O)Nc1ccc2ncnc(Nc3cccc(Br)c3)c2c1 [PCM-0215449-001] | 102.8 | 1.009 | 1.056 | – | –
CC1(C)C=Cc2c(ccc3c2OC[C@@H](c2ccc(O)cc2O)C3)O1 [PCM-0214974-001] | 70.3 | 1.13 | 1.0065 | – | –
O=c1cc(-c2ccc(O)c(O)c2)oc2cc(O)cc(O)c12 [PCM-0086559-001] | 84.8 | 2.125 | 1.0702 | – | –
COc1cc2nccc(Oc3ccc(NC(=O)C4(C(=O)Nc5ccc(F)cc5)CC4)cc3)c2cc1OC [PCM-0094920-004] | 123.4 | 1.097 and 1.08 | 1.121 and 1.125 | – | –
C=CC(=O)Nc1ccc(CN2C(=O)N(c3cc(OC)cc(OC)c3)Cc3cnc(Nc4ccc(N5CCN(C)CC5)cc4)nc32)cc1 [PCM-0215559-001] | 88.3 | 1.072 | 1.041 | – | –
Cc1cc(Nc2cc(CN3CCOCC3)c3nc(C)c(Cc4ccc(Cl)cc4F)n3n2)n[nH]1 [PCM-0095222-002] | 56.6 | 1.03 | 1.045 | – | –
CCc1cccc(CC)c1NC(=O)N1Cc2[nH]nc(NC(=O)c3ccc(N4CCN(C)CC4)cc3)c2C1 [PCM-0095127-002] | 65.5 | 1.117 | 1.096 | – | –
CC(C)(C)c1cc(NC(=O)Nc2ccc(Oc3ccnc4[nH]c(=O)cnc34)cc2F)n(-c2ccccc2)n1 [PCM-0215780-001] | 61.4 | 1.123 | 1.039 | – | –
C=CC(=O)N1CCC(Oc2cc3c(Nc4ccc(Cl)c(Cl)c4F)ncnc3cc2OC)CC1 [PCM-0215416-001] | 119.3 | 1.023 | 1.082 | – | –
NCC(=O)Nc1ccc(-n2nc(C(F)(F)F)cc2-c2ccc3c(ccc4ccccc43)c2)cc1 [PCM-0094886-003] | 70.3 | 1.037 | 1.095 | – | –
COc1nc2ccc(Br)cc2cc1[C@@H](c1ccccc1)[C@@](O)(CCN(C)C)c1cccc2ccccc12.O=C(O)/C=C/C(=O)O [PCM-0215093-001] | 84 | 1.148 | 1.067 | – | –
Cc1noc(C)c1-c1ccc(-c2cc(C(N)=O)c(NC(N)=O)s2)c(O[C@H]2CCNC2)c1 [PCM-0215541-001, AZD3264] | 74.1 | 2.057 | 1.467 | – | –
O=C(O)c1ccc(N2C(=O)/C(=C/c3ccc(-c4ccc([N+](=O)[O-])cc4)o3)C=C2c2ccccc2)cc1 [PCM-0095764-003] | 98.1 | 1.233 | 0.999 | – | –
CCCCc1oc2ccccc2c1C(=O)c1cc(I)c(OCCN(CC)CC)c(I)c1.Cl [PCM-0064561-003] | 75.5 | 1.028 | 1.018 | – | –
C=CC(=O)Nc1ccc2ncnc(Nc3ccc(OCc4cccc(F)c4)c(Cl)c3)c2c1.Cc1ccc(S(=O)(=O)O)cc1 [PCM-0095229-002] | 109.7 | 0.9282 | 1.039 | – | –
CN1CCN(Cc2ccc(Nc3ncc(Cl)c(Nc4ccccc4S(=O)(=O)N(C)C)n3)cc2)CC1 [PCM-0215510-001] | 67.2 | 1.221 | 1.15 | – | –
Cc1nc(Nc2ccc(F)cc2)nc(N2CCc3ccccc3C2C)c1C.Cl (centres unmarked) [PCM-0216015-001] | 79.3 | 1.147 | 1.02 | – | –

Compound | BTK Inhibition reported in luminescence assay* (BTK) | FI (650)/FI (620) (BTK-1h; [1]) | FI (BTK-1h)/FI (BTK-1h+Inhibitor) at 620 nm (BTK-1h; [1]) | FI (BTK-1h)/FI (BTK-1h+Inhibitor) at 620 nm (BTK-1h; [2]) | FI (650)/FI (620) (BTK-1h; Dataset S2C, BTK-1h with inhibitor)
O=c1cc(-c2ccc(O)cc2)oc2cc(O)c(O)c(O)c12 [PCM-0216408-001, Scutellarein] | 70.3 | 4.394 | 1.081 | 4.394 | –
Cc1cc(O)c(-c2ccc([C@@H](C)CN)cc2)c2c1[nH]c(=O)c1sccc12 [PCM-0215772-001] | 70.3 | 1.102 | 1.063 | – | –
CN1CCN(c2ccc(C(=O)Nc3n[nH]c4ccc(Cc5cc(F)cc(F)c5)cc34)c(NC3CCOCC3)c2)CC1 [PCM-0215551-001] | 102.8 | 0.9755 | 1.038 | – | –
Cc1cc(C(=O)Nc2nc3cccc(Cl)c3n2[C@@H]2CCCCN(C(=O)/C=C/CN(C)C)C2)ccn1 [PCM-0215804-001] | 73.8 | 1.045 | 1.069 | – | –
Cc1nc(N)sc1-c1ccnc(Nc2ccc(N3CCOCC3)cc2)n1 [PCM-0095025-002] | 57.2 | 1.274 | 1.071 | – | –
O=c1c(O)c(-c2ccc(O)cc2)oc2cc(O)cc(O)c12 [PCM-0087037-002] | 67.7 | 0.933 | 1.031 | – | –
CC(=O)Nc1nc(-c2cccc(NS(=O)(=O)c3cccc4c(N(C)C)cccc34)c2)cs1 [PCM-0215679-001] | 97.3 | 1.491 | 1.033 | – | –
CCCCCCCCCCCCCCCC(=O)O[C@@H]1[C@@H](O)[C@@H](O)[C@@H]([C@H](NC(=O)[C@@H]2C[C@@H](CCC)CN2C)[C@H](C)Cl)O[C@@H]1SC.Cl [PCM-0215167-001] | 73.2 | 0.5899 | 0.9902 | – | –
C#CC[C@H](c1nc2cc(Cl)ccc2c(=O)n1Nc1ccccc1)N(CCCN)C(=O)c1cccc(Cl)c1F [PCM-0095802-002] | 52.5 | 1.024 | 1.031 | – | –
OC1CCC(Oc2cccc3cnc(Nc4ccc5nc[nH]c5c4)nc23)CC1 (centres unmarked) [PCM-0215798-001] | 66.2 | 1.285 | 1.0276 | – | –
CN(C)C/C=C/C(=O)Nc1ccc(C(=O)Nc2cccc(Nc3ncc(Cl)c(-c4c[nH]c5ccccc45)n3)c2)cc1 [PCM-0213464-002, THZ1 2HCl] | 116.6 | 2.745 | 2.341 | – | 2.341
C=CC(=O)Nc1cccc(C)c1Nc1ncc2cc(-c3c(Cl)c(OC)cc(OC)c3Cl)ccc2n1 [PCM-0215508-001] | 100.4 | 1.043 | 1.041 | – | –
Cc1cc(-c2ccc(N=Nc3ccc4c(S(=O)(=O)[O-])cc(S(=O)(=O)[O-])c(N)c4c3O)c(C)c2)ccc1N=Nc1ccc2c(S(=O)(=O)[O-])cc(S(=O)(=O)[O-])c(N)c2c1O.[Na+].[Na+].[Na+].[Na+] [PCM-0214845-001] | 125.3 | – | 7.121 | – | –
Cc1[nH]c(/C=C2\C(=O)Nc3ccccc32)c(C)c1CCC(=O)O [PCM-0095149-002] | 52.4 | 0.9795 | 1.036 | – | –
CN(c1ncccc1CNc1nc(Nc2ccc3c(c2)CC(=O)N3)ncc1C(F)(F)F)S(C)(=O)=O.O=S(=O)(O)c1ccccc1 [PCM-0095340-005] | 84.8 | 1.135 | 1.028 | – | –
O=S(=O)([O-])c1ccc2cc(N=Nc3cc(S(=O)(=O)[O-])c4cccnc4c3O)ccc2c1.[Na+].[Na+] [PCM-0215685-001] | 54.1 | 1.281 | 1.027 | – | –
Cn1cc(-c2cc(Oc3cc(F)c(NC(=O)C4(C(=O)Nc5ccccc5)CC4)cc3F)ccn2)cn1 [PCM-0216116-001] | 88.8 | 1.3565 | 1.092 | – | –
O=[N+]([O-])c1ccc(Sc2cccc[n+]2[O-])c2nonc12 [PCM-0215705-001, NSC228155] | 73.4 | 7.1 | 1.02 | 7.1 | –
Cc1ccccc1C(=O)Nc1ccc(C(=O)N2CCCC(N(C)C)c3ccccc32)cc1 (centres unmarked) [PCM-0095424-002] | 70 | 1.034 | 1.021 | – | –
